This is an account of results in patent publication US20240254174A1 (priority 2023, published 2024).

For one data set, the system named is Pdcd4 protein. The class given is cell-based.
The next data set concerns Pdcd4. The settings on record: mouse, in vivo.
In data set [1] the test system is BDNF. It counts as cell-based.
For data set [2], the system named is BDNF. The note with it: mouse, in vivo.
Target sequence in this assay (P21237 131-249): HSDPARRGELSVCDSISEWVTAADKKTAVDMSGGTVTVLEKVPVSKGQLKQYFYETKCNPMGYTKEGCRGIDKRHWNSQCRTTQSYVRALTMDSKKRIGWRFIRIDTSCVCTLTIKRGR
For data set [3], the target named is T1, α7 nAChR (Homo sapiens, UniProt P36544). As to the kind of experiment: cell-based. The note with it: read-out: inhibition of ACh-mediated currents on α7 nAChR.
T1 sequence (P36544 23-502 limits assumed): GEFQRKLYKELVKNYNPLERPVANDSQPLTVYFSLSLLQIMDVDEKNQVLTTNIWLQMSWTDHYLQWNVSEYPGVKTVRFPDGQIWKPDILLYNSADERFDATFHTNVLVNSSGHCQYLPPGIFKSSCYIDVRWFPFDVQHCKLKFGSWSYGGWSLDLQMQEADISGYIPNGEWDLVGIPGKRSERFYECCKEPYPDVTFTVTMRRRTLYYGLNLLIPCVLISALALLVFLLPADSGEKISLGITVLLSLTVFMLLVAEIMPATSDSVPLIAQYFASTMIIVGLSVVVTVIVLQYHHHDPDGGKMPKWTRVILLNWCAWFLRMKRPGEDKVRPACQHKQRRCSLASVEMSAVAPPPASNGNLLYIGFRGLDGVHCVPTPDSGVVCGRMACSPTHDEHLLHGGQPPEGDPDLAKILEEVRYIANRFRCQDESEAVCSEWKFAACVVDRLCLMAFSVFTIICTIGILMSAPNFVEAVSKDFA
Another data set relates to nAChR subtypes. It counts as cell-based, Human.
Another data set has as its target α9α10 nAChR (Homo sapiens, UniProt Q9GZZ6+Q9UGM1). Briefly: cell-based.
The target in data set [4] is T1, α7 nAChR. As to the kind of experiment: cell-based. It counts as cell-based.
In data set [5] the test system is α7-nAChR transfected N2a cells. It counts as cell-based.
Data set [6] relates to non-transfected N2a cells.
Data set [7] concerns the target α9α10 nAChR, expressed in Xenopus laevis oocytes (Human) (UniProt Q9UGM1). As to the kind of experiment: cell-based or functional assay.
Data set [8] deals with α7 nAChR (nicotinic acetylcholine receptor), expressed in Xenopus laevis oocytes (Human) (UniProt P36544). As to the kind of experiment: cell-based or functional assay.
α7 nAChR (nicotinic acetylcholine receptor), expressed in Xenopus laevis oocytes (Human), sequence (P36544 23-502): as the sequence (P36544 23-502 limits assumed) above
For data set [9] the following is noted: in vivo.
In data set [10] the test system is non-transfected HEK cells. The class given is cell-based, human.
Data set [11] relates to α7-nAChR transfected cells. The class given is cell-based.

Where “and” joins values, the source holds several entries; their conditions need not be identical. Equal values may be shown once. Entries after “also recorded” stand apart in the source; their conditions may differ.

α9α10 nAChR, expressed in Xenopus laevis oocytes (Human), sequence (Q9UGM1 23-479, chain 1 of 2): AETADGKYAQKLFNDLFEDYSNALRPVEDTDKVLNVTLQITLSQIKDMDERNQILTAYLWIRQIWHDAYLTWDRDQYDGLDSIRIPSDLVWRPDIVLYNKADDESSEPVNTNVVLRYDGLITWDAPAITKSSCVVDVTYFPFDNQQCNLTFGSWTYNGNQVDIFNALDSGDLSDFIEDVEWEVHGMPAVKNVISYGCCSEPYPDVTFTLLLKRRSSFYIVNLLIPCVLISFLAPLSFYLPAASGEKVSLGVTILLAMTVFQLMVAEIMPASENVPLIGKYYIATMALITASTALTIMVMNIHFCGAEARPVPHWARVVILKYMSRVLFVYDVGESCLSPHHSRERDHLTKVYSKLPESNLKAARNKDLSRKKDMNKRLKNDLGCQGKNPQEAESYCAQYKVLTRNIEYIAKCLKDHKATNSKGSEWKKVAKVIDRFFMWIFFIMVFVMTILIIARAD
α9α10 nAChR, expressed in Xenopus laevis oocytes (Human), sequence (Q9GZZ6 25-450, chain 2 of 2, further chain): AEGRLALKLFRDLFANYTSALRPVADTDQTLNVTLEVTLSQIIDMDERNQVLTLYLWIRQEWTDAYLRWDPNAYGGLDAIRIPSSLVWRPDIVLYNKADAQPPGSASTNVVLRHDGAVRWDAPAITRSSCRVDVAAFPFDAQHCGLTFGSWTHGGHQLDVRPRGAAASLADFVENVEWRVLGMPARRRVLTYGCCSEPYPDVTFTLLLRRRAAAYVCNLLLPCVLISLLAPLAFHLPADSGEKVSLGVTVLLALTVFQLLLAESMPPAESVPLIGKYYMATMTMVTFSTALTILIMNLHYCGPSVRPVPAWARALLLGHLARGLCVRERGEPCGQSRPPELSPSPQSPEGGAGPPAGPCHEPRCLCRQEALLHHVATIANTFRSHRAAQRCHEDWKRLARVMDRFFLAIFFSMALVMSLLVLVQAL
Pdcd4, sequence (Q61823 whole entry): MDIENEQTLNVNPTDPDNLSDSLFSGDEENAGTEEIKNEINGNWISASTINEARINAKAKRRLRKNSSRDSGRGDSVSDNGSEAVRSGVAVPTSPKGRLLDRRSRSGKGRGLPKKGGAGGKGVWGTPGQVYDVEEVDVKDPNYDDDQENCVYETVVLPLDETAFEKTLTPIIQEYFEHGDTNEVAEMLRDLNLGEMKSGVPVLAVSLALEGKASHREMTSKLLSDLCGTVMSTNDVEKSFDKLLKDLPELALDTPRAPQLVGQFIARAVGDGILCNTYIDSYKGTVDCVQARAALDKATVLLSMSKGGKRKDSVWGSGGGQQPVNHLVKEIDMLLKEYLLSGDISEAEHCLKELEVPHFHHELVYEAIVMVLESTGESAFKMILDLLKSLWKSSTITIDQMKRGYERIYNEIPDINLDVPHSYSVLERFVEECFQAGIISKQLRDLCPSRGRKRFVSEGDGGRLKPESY
α9α10 nAChR, sequence (Q9UGM1 26-479 limits assumed): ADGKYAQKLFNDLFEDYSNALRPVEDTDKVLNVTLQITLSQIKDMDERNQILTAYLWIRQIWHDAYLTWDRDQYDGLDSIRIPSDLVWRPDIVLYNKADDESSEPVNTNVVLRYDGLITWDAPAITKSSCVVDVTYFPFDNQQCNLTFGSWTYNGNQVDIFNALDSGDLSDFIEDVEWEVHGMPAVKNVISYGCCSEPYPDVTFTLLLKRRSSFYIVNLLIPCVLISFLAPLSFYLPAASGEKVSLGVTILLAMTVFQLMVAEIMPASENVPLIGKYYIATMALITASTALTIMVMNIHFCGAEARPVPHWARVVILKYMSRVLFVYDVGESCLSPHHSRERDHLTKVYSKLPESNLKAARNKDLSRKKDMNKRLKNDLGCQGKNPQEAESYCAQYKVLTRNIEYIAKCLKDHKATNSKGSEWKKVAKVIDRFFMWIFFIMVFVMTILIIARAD
α9α10 nAChR, sequence (Q9GZZ6 25-450 limits assumed): as the sequence (Q9GZZ6 25-450, chain 2 of 2, further chain) above

Regarding “5′-GAGGCUAUGAGAGAAUUUATT-FL-3′ [siPdcd4]”, in the data set on Pdcd4 protein, the “expression of Pdcd4 protein” value is reported as “knock down”. In the data set with Pdcd4, the “Pdcd4 expression in tissue” value is reported as “decreases”. Besides, the BDNF production result with BDNF [1] is recorded as “enhance”. For the same compound, in the data set on BDNF [2], the “BDNF production in tissue” value was “enhance”.

For the compound `CC[C@H](C)[C@H](NC(=O)[C@H](CC(=O)O)NC(=O)[C@H](CS)NC(=O)[C@H](CO)NC(=O)[C@@H](NC(=O)CNC(=O)[C@H](CC(C)C)NC(=O)[C@H](CCCNC(=N)N)NC(=O)[C@@H]1CCCN1C(=O)[C@H](CC(N)=O)NC(=O)[C@H](CCC(=O)O)NC(=O)[C@@H]1CCCN1C(=O)[C@H](CCSC)NC(=O)[C@H](Cc1c[nH]c2ccccc12)NC(=O)[C@@H](NC(=O)[C@@H](NC(=O)[C@@H](N)Cc1ccc(O)cc1)[C@@H](C)O)[C@@H](C)CC)[C@@H](C)O)C(=O)N[C@@H](Cc1ccccc1)C(=O)N[C@H](C(=O)N[C@@H](CC(N)=O)C(=O)N[C@@H](CO)C(=O)N[C@@H](CCCNC(=N)N)C(=O)NCC(=O)N[C@@H](CCCCN)C(=O)N[C@@H](CCCNC(=N)N)C(=O)N[C@@H](C)C(=O)N[C@@H](CO)C(=O)N[C@@H](CCCCN)C(=O)NCC(=O)O)[C@@H](C)O` [RVG peptide, reference compound], the inhibition (in general, the change of the read-out against control, counted positive when it falls) at 100 µM at α7 nAChR [3] is greater than 80%. Further, in the data set with nAChR subtypes, the “inhibition of ACh-mediated currents on several other nAChR subtypes” value is listed as greater than 25% and the “nAChR subtype selectivity (in words)” value is “not target specific; also recorded: slight preference for the α7-nAChR; also recorded: not very selective”. Besides, half-maximal inhibition against α9α10 nAChR (IC50) was put at 153 ± 14 µM. Further, the IC50 – broadly, the concentration needed to halve the response being measured – at α7 nAChR [4] (α7 nAChR potency (IC50, concentration response profile)) was 32 µM and 31 µM. In addition, the neuro-/cytotoxicity result with HEK cell lines is “not neuro- or cyto-toxic”.

For the compound `CSCC[C@H](NC(=O)[C@H](CCCCN)NC(=O)[C@H](CCCNC(=N)N)NC(=O)[C@@H](N)Cc1ccc(O)cc1)C(=O)N[C@@H](Cc1c[nH]c2ccccc12)C(=O)N[C@@H](CCSC)C(=O)N1CCC[C@H]1C(=O)N[C@@H](CCC(=O)O)C(=O)N[C@@H](CC(N)=O)C(=O)N1CCC[C@H]1C(=O)N[C@@H](CCCNC(=N)N)C(=O)N[C@@H](CC(C)C)C(=O)NCC(=O)N[C@H](C(=O)N[C@@H](CO)C(=O)N[C@@H](CS)C(=O)N[C@@H](CC(=O)O)C(=O)N[C@@H](C)C(=O)N[C@@H](Cc1ccccc1)C(=O)N[C@@H](CS)C(=O)N[C@@H](CO)C(=O)N[C@@H](CO)C(=O)N[C@@H](CCCNC(=N)N)C(=O)NCC(=O)N[C@@H](CCCCN)C(=O)N[C@H](C(=O)N[C@H](C(=O)N[C@@H](CCC(=O)O)C(=O)N[C@@H](CC(C)C)C(=O)NCC(=O)O)C(C)C)C(C)C)[C@@H](C)O` [lead peptide], in data set [5], the “time to entry into neuronal-like cells post-exposure” value was no more than 3 h and the “time visually present in neuronal-like cells” value is “up to 72 hrs”. Moreover, in the data set with nAChR subtypes, the “inhibition of ACh-mediated currents on no more than two subtypes (positive hit criterion)” value is greater than 80%, the “inhibition of ACh-mediated currents on the other tested nAChR subtypes” value was less than 25% and the “nAChR subtype selectivity (in words)” value is listed as “minimally targeting nine other nAChR subtypes; also recorded: high selectivity”. For the same compound, the “α7 nAChR potency (IC50, concentration response profile)” value on α7 nAChR [4] is “low μM”. Further, in the data set with HEK cell lines, the neuro-/cytotoxicity result is on record as “not neuro- or cyto-toxic”.

For CDAFCSSRGKVVELG [α-btx Region 3], the “effect of peptide regions on α7 nAChR mediated currents (in words)” value (“effect of peptide regions” below) at α7 nAChR [4] is reported as “inhibit”.

Regarding CDIFTNSRGKRASKG [RVG Region 3], the “effect of peptide regions” value at α7 nAChR [4] is recorded as “slightly antagonizes”.

For DMSO, the “cell viability, positive control” value in data set [6] is “kills cells”.

Regarding MPENPRLGTS [RVG Region 2], the “effect of peptide regions” value at α7 nAChR [4] is “minimal effects”.

For the compound “RVG peptide (rabies viral glycoprotein peptide)”, the potency (concentration response profile, inhibition of ACh-mediated currents) came out at 153 µM in [7] and 31 µM in data set [8]. The compound further registered a potency (concentration response, inhibition of ACh-mediated currents) in [8] of 32 µM.

For YRKMW [α-btx Region 1], at α7 nAChR [4], the “effect of peptide regions” value is “inhibit”.

On to “YRKMWMPENPRLGTSCDAFCSSRGKVVELGRRRRRRRRR [lead CPP-9dR]”, for which the “siPdcd4-FL delivery into mouse CNS” value in data set [9] is recorded as “can facilitate siPdcd4-FL delivery into mouse CNS”. Moreover, the brain regional distribution entry in data set [9] (mouse) is “accumulate in the hippocampus and prefrontal cortex”. The “delivery of siPdcd4-FL into non-transfected HEK cells” value in [10] is listed as “not into non-transfected HEK cells”. The “delivery of siPdcd4-FL into α7-nAChR transfected cells” value in [11] is on record as “can facilitate delivery”.

Turning to YTIW [RVG Region 1], on α7 nAChR [4], the “effect of peptide regions” value was “minimal effects”.

In the case of α-bungarotoxin [reference compound], the “cell entry / labeling (in words)” value in data set [5] is reported as “unable to enter”.
